Laboratory results: ChEMBL document CHEMBL1811882, “Synthesis and in vitro evaluation of novel pro-drugs for the treatment of nephropathic cystinosis” (Bioorg Med Chem, 2011)
The source made the active and inactive calls. The calls are words filed in the database; no cut-off is given here.

Columns and labels:
[1] = tested on: Fibroblast; assay: Reduction of intralysosomal cystine in cystinotic human fibroblasts at 50 uM after 24 hrs by Bradford method relative to control; assay type: functional, cell-based
[2] = Cytotoxicity against cystinotic human fibroblasts at 50 uM after 72 hrs by Alamar blue assay; assay type: cell-based; conditions: fibroblast

Row | SMILES | Activity [1] | Activity [2]
1 | Cl.Cl.NCCSSCCNC(=O)CCCC(=O)NCCSSCCNC(=O)CCCC(=O)NCCSSCCN | Active | Non-toxic
2 | Cl.Cl.N[C@@H](Cc1ccccc1)C(=O)NCCSSCCNC(=O)CCC(=O)NCCSSCCNC(=O)CCC(=O)NCCSSCCNC(=O)[C@@H](N)Cc1ccccc1 | Active | Non-toxic
3 | Cl.Cl.N[C@@H](Cc1ccccc1)C(=O)NCCSSCCNC(=O)CCCC(=O)NCCSSCCNC(=O)CCCC(=O)NCCSSCCNC(=O)[C@@H](N)Cc1ccccc1 | Active | Non-toxic
4 | NCCS [CYSTEAMINE] | Active | Non-toxic
5 | Cl.Cl.NCCSSCCNC(=O)CCC(=O)NCCSSCCNC(=O)CCC(=O)NCCSSCCN | Active | Non-toxic
